Results as given in US10246432B2, “4-(3-cyanophenyl)-6-pyridinylpyrimidine mGlu5 modulators” (Heptares Therapeutics Limited, priority 2013, dated 2019).

system: Male CD-1 mice; experiment: In vivo efficacy test - mouse marble burying; conditions: 10 and 30 mg/kg po versus vehicle group, dosed 30 min prior to test, one-way ANOVA with Dunnett's post-hoc test
Excerpt: In Vivo Efficacy Test—Marble Burying

In the case of N#Cc1cc(Cl)cc(-c2cc(-c3ccc(F)cn3)ncn2)c1 [Example 17, 3-chloro-5-[6-(5-fluoropyridin-2-yl)pyrimidin-4-yl]benzonitrile], the “number of marbles buried” value is reported as “statistically significant decrease”.

target: hippocampal mGlu5 receptors (Rattus norvegicus (Rat), UniProt P31424); experiment: Ex vivo mGlu5 receptor occupancy; format: in vivo; conditions: Sprague Dawley rats, 1-10 mg/kg po, one hour post-dose, hippocampal CA3 sections, [3H]-M-MPEP autoradiography, read-out: estimated ED50 (receptor occupancy)
Sequence (P31424 21-1203): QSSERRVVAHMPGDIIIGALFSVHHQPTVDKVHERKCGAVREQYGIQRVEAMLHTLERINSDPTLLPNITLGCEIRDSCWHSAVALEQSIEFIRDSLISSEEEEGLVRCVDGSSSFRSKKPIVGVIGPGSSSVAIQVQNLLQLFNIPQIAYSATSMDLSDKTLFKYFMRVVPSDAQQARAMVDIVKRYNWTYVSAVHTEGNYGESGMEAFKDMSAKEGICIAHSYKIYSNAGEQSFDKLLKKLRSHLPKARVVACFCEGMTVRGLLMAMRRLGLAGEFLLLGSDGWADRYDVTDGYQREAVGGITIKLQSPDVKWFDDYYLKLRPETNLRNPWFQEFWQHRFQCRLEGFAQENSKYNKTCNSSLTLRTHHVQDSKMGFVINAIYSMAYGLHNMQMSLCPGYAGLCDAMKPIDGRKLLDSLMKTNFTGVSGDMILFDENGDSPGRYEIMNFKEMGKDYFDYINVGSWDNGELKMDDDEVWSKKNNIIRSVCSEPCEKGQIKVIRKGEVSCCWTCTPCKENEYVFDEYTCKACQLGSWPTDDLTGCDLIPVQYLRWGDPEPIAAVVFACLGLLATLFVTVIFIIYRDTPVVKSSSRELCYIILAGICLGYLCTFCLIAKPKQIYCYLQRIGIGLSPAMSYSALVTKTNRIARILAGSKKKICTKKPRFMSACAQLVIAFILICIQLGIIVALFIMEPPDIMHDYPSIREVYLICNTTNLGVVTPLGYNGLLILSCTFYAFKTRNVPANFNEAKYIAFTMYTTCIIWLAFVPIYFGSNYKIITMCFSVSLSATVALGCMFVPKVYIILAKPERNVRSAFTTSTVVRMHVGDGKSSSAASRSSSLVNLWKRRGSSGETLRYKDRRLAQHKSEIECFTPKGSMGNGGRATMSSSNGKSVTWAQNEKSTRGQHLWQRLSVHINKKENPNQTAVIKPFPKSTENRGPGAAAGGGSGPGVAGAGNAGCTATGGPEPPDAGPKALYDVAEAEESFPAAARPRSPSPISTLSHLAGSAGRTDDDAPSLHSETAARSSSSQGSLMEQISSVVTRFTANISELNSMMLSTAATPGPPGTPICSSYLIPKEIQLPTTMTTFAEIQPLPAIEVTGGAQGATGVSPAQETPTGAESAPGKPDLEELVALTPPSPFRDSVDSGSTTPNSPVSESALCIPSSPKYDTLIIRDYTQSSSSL
Description: Ex Vivo mGlu5 Receptor Occupancy
One hour post-dose, animals were sacrificed and whole brains removed, rinsed and blot dried. A coronal block was cut containing the hippocampus and divided along the mid-line and rapidly frozen in isopentane for sectioning and autoradiography. Coronal half-brain sections were cut 20 μm thick, approximately 4 mm posterior to the bregma, to incorporate the hippocampal CA3 region. Three adjacent sections were mounted onto slides and incubated with 2 nM [^3H]-M-MPEP (total binding) or 2 nM [^3H]-M-MPEP and 10 μM fenobam (non-specific binding, Tocris bioscience, catalogue number 2386) for 10 min at room temperature. Binding was terminated by aspiration and washing with ice-cold assay buffer (4×5 min) and sections allowed to air dry. Levels of bound radioactivity in the sections were determined using a beta imager over a 16 h period. Occupancy was determined as mean specific binding with the vehicle treated control taken as 100%.

First: N#Cc1cc(Cl)cc(-c2cc(-c3ccccn3)ncn2)c1 [Example 2, 3-chloro-5-[6-(pyridin-2-yl)pyrimidin-4-yl]benzonitrile]
Second: N#Cc1cc(Cl)cc(-c2cc(-c3ccc(F)cn3)ncn2)c1 [Example 17, 3-chloro-5-[6-(5-fluoropyridin-2-yl)pyrimidin-4-yl]benzonitrile]
The ED50 of the first is 9.3-fold higher: 2.8 mg/kg for the first, 0.3 mg/kg for the second.

N#Cc1cc(C#N)cc(-c2cc(-c3ccc(F)cn3)ncn2)c1 [Example 18, 5-[6-(5-fluoropyridin-2-yl)pyrimidin-4-yl]benzene-1,3-dicarbonitrile] gave an ED50 of 2.9 mg/kg.

target: human mGlu5 receptor (Homo sapiens (Human), UniProt P41594); experiment: [3H]-M-MPEP radioligand binding assay; conditions: competition with [3H]-M-MPEP, membranes of HEK293 cells transfected with human mGlu5
Sequence (P41594 21-1212): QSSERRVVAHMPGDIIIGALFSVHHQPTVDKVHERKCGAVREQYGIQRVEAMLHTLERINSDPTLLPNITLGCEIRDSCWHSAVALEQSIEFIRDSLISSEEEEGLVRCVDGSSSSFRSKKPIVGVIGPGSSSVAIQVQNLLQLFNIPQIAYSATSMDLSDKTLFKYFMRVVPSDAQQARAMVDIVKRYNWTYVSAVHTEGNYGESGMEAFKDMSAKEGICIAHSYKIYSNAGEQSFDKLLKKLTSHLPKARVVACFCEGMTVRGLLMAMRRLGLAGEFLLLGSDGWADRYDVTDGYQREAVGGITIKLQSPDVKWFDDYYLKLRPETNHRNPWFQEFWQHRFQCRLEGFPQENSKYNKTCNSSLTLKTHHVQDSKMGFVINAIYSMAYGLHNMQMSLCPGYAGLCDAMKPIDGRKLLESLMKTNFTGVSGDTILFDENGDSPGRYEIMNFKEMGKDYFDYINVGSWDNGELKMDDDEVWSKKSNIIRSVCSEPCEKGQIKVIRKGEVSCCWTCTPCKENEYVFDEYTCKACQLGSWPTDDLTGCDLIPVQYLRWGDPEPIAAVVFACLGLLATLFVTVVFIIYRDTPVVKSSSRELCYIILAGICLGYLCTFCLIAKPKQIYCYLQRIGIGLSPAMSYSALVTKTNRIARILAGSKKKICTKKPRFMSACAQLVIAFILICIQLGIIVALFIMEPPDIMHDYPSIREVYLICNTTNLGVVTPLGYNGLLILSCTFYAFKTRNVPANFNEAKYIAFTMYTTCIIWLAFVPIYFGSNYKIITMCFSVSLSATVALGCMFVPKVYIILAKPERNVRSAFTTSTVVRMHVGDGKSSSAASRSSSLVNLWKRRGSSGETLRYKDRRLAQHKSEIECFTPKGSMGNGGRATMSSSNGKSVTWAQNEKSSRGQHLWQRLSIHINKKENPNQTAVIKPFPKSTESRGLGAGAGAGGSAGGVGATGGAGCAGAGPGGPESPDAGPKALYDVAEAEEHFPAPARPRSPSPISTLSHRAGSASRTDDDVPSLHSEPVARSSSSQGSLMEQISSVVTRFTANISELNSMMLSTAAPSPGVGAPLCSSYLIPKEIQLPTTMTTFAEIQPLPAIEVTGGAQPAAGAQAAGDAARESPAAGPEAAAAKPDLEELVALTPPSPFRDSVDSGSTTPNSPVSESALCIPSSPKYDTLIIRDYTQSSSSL
Description: Biological Methods Membrane Preparation
cDNA encoding the human mGlu5 receptor was transfected into HEK293 cells using the transfection reagent Genejuice (Novagen). Forty-eight hours after transfection, cells were harvested and washed twice with ice cold phosphate-buffered saline. The pellet was re-suspended in ice-cold buffer containing 20 mM Tris-HCl, pH 7.4, 1 mM EDTA and homogenised with an Ultraturax for 30 s at maximum speed. The suspension was centrifuged (800×g for 5 min at 4° C.) and supernatant collected. Supernatant was centrifuged (40,000×g for 30 min at 4° C.). The resulting pellet was re-suspended and frozen at −80° C. before use. Protein concentration was determined using the BCA protein assay method (Merck Chemicals Ltd).
[^3H]-M-MPEP Radioligand Binding Assay
After thawing, membrane homogenates were re-suspended in the binding buffer (50 mM HEPES pH 7.5, 150 mM NaCl) to a final assay concentration of 2.5 μg protein per well. […] At the end of the incubation, membranes were filtered onto a 96-well GF/B filter pre-incubated with 0.1% polyethylenimine, with a Tomtec cell harvester and washed 5 times with 0.5 mL distilled water. Non-specific binding (NSB) was measured in the presence of 0.1 mM MPEP hydrochloride (Tocris bioscience, catalogue number 1212). Radioactivity on the filter was counted (1 min) on a microbeta counter after addition of 50 μL of scintillation fluid. […] IC50 values were derived from the inhibition curve and the equilibrium dissociation constant (Ki) values were calculated using the Cheng-Prussoff equation.

Compared with Cc1cc(C#N)cc(-c2cc(-c3ccccn3)ncn2)c1 [Example 4, 3-methyl-5-[6-(pyridin-2-yl)pyrimidin-4-yl]benzonitrile], N#Cc1cc(C#N)cc(-c2cc(-c3ccccn3)ncn2)c1 [Example 21, 5-[6-(pyridin-2-yl)pyrimidin-4-yl]benzene-1,3-dicarbonitrile] is lower in pKi avg: 8.56 for the first, 7.98 for the second.

First: N#Cc1cc(Cl)cc(-c2cc(-c3ccncn3)ncn2)c1 [Example 6, 3-(4,4′-bipyrimidin-6-yl)-5-chlorobenzonitrile]
Second: Cc1ccc(-c2cc(-c3cc(C)cc(C#N)c3)ncn2)nc1 [Example 23, 3-methyl-5-[6-(5-methylpyridin-2-yl)pyrimidin-4-yl]benzonitrile]
The pKi avg of the first is lower: 8.27 for the first, 8.67 for the second.

Going from N#Cc1cc(Cl)c(F)c(-c2cc(-n3cccn3)ccn2)c1 [Example 10, 3-chloro-4-fluoro-5-[4-(1H-pyrazol-1-yl)pyridin-2-yl]benzonitrile] to N#Cc1cc(Cl)c(F)c(-c2ccnc(-n3cccn3)c2)c1 [Example 11, 3-chloro-4-fluoro-5-[2-(1H-pyrazol-1-yl)pyridin-4-yl]benzonitrile], the pKi avg falls from 8.37 to 8.16.

N#Cc1cc(Cl)c(F)c(-c2cc(-n3cc(F)cn3)ncn2)c1 [Example 12, 3-chloro-4-fluoro-5-[6-(4-fluoro-1H-pyrazol-1-yl)pyrimidin-4-yl]benzonitrile] and N#Cc1cc(CF)cc(-c2cc(-n3cccn3)ncn2)c1 [Example 16, 3-(fluoromethyl)-5-[6-(1H-pyrazol-1-yl)pyrimidin-4-yl]benzonitrile] are within 0.2 log units of each other in pKi avg: 8.00 for the first, 8.17 for the second.

Compared with COCc1cc(C#N)cc(-c2cc(-c3ccc(F)cn3)ncn2)c1 [Example 24, 3-[6-(5-fluoropyridin-2-yl)pyrimidin-4-yl]-5-(methoxymethyl)benzonitrile], COc1cc(C#N)cc(-c2cc(-c3ccc(F)cn3)ncn2)c1 [Example 25, 3-[6-(5-fluoropyridin-2-yl)pyrimidin-4-yl]-5-methoxybenzonitrile] is lower in pKi avg: 8.57 for the first, 8.37 for the second.
